Laboratory results from patent US20040009904A1, “APL immunoreactive peptides, conjugates thereof and methods of treatment for aPL antibody-mediated pathologies” (priority 1995, published 2004).
Numbered stars: 1 amine (or outer) side, 2 acyl side, 3 side chain; on linkers, the order of the positions; unused ones are H or OH. Bridge positions count the residues as written; N and C are the ends. Square brackets hold non-standard residues; d marks the D form. Peptide text beside a SMILES is read from it. Abu(4-yl) = O=C([C@H](CC[*:3])N[*:1])[*:2]

Columns and labels:
[1] = tested on: ACA-6501; experiment: Phage-ELISA; assay type: binding, human; conditions: phage clones coated on wells, affACA-6501 2.5 μg/mL
Protocol: This method of selecting phage requires very tight binding of the insert to the screening antibody. Phage are directly coated onto wells of a microtitration plate and incubated with the screening antibody. Following washes to remove unbound antibody, an anti-human IgG alkaline phosphatase conjugate is added to bind any aPL antibodies bound to the phage. APL antibodies are then detected by adding a calorimetric substrate to the well which will react with alkaline phosphatase according to methods well known in the art.
Three mL cultures were prepared from 35 clones previously isolated with affinity purified ACA-6501 in several phage library screens as well as one fUSE 2 phage clone lacking a peptide insert which was used as a control. After centrifugation for 3 minutes at 17,000×g, 100 μL from each phage supernatant (adjusted to −2×10^11 particles/mL, based on absorbance) was added to microtitration plate wells (Falcon, Becton-Dickinson Labware, Lincoln Park, N.Y.) and allowed to incubate overnight at 4° C. Following four washes with TBS 7.4, the plate was blocked with 125 μL of 0.5% BSA/TBS for 1 hour at RT. After another four TBS washes, 100 μL of affACA-6501 previously diluted to 2.5 μg/mL in TBS/BSA was added to each well and allowed to incubate 1 hour at 37° C. Following an additional four washes, 100 μL anti-human IgG diluted 1:1000 in TBS/0.5% Tween was added to each well. After 1 hour at RT, enzyme substrate was added and the incubation allowed to proceed for 2 hours. Following the addition of 50 μL 0.2 M Na2HPO4 to stop the reaction, absorbance was measured at 550 nm in the automated plate absorbance reader. […] The sequences for these clones are showvn in Table 2.

[2] = tested on: ACA-6626; experiment: Competitive binding peptide ACA ELISA, cardiolipin/β2-GPI-coated plates; set-up: species or system human; conditions: affinity purified antibody
Protocol: (§1) A variation of this assay uses microtitration plates coated with human β2-glycoprotein I/cardiolipin (β2-GPI/CL) instead of tetravalent peptide and tests the ability of monomeric peptides to block the binding of aPL antibody to the epitope(s) on β2-GPI/CL. In this assay, IgG-depleted human serum at an optimized concentration is used as a source of β2-GPI. The monomeric peptides at several concentrations are incubated with an optimized concentration of aPL antibody in a manner analogous to the assay which employs tetravalent peptide as a plate substrate. Following the incubation of aPL/peptide in (β2-GPI/CL) plates, antibody binding and the peptide concentration required for 50% inhibition is determined at half-maximal absorbance as in the tetravalent assay.
(§2) Peptide sequences for all five peptides immediately follow the table. All were tested using the competitive binding peptide ACA ELISA using CL/β2-GPI plates as described herein.
(§3) (B) Immulon I® 96-well, flat-bottom, polystyrene microtitration plates (Dynatech Laboratories, Inc., Chantilly, Va.) were coated with 30 μL/well of cardiolipin (CL, 50 μg; Sigma Chemical Co., St. Louis, Mo.) in ethanol. Two control wells received 30 μL ethanol only. After overnight evaporation at 4° C., each well was blocked with 200 μL of 5% (w/v) fish gelatin in PBS for 2 hours at RT.
(§4) The CL/β2-GPI microtitration plate was washed 5 times with TBS and 100 μL aliquots in duplicate from Eppendorf tubes #1, 2, 3, and 4 containing the antibody-peptide (or no peptide mixtures) were added to the wells. A volume of 100 μL from tube #4 was added to the duplicate control wells containing no cardiolipin. The microtitration plate was incubated for 1 hour at RT with agitation at 40 rpm in an orbital shaker (American Scientific, Rotator V), washed 5 times with TBS and then 100 μL of 1:1000 goat anti-human IgG alkaline phosphatase conjugate (Zymed, Cat No. 62-8422) in 0.5% (w/v) BSA-TBS was added. Following incubation for 1 hour at RT, the microtitration plate was again washed 5 times with TBS and the colorimetric enzyme detection developed by adding 100 μL of PMPP solution (7.8 g phenolphthalein monophosphate plus 69.5 g of 2-amino-2-methyl-1-propanol in 100 mL water stock solution diluted 1:26 with water). After 21 minutes, the reaction was stopped by adding 50 μL of 0.2 M Na2HPO4 (Mallinckrodt) to each well. Absorbance at 550 nm was read in a microplate reader (Bio-Tek Instruments, Model EL 311). The amount of peptide that inhibited ACA-6501 binding by 50%, the IC50, was calculated from the graph at the intersection of half-maximal absorbance with amount of peptide added.

[3] = tested on: ACA-6641; experiment: as above; set-up: species or system human; conditions: affinity purified antibody
Protocol: as §1, §2, §3, §4

[4] = tested on: ACA-6903; experiment: as above; set-up: species or system human; conditions: affinity purified antibody
Protocol: as §1, §2, §3, §4

[5] = tested on: ACA-6701; experiment: as above; set-up: species or system human; conditions: for Percent Inhibition of AffACA by Peptide Monomers, 6701: affinity purified antibody; for IC50 Values, ACA-6701: cyclic thioether analogs
Protocol: as §1, §2, §3, §4

[6] = tested on: ACA-7004; experiment: as above; set-up: species or system human; conditions: affinity purified antibody
Protocol: as §1, §2, §3, §4

[7] = tested on: ACA-6644; experiment: as above; set-up: species or system human; conditions: affinity purified antibody
Protocol: as §1, §2, §3, §4

[8] = tested on: ACA-7005; experiment: as above; set-up: species or system human; conditions: affinity purified antibody
Protocol: as §1, §2, §3, §4

[9] = tested on: ACA-6638; experiment: as above; set-up: species or system human; conditions: affinity purified antibody
Protocol: as §1, §2, §3, §4

[10] = tested on: ACA-6501; experiment: as above; set-up: species or system human; conditions: for Percent Inhibition of AffACA by Peptide Monomers, 6501: affinity purified antibody; for with ACA 6501 150 ug/mL: Optimization of Peptide 3G3, inf = no 50% inhibition; for IC50 Values, ACA-6501: cyclic thioether analogs
Procedure, shortened: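 Monomeric peptides at several amounts were preincubated ~1 h at RT with ACA-6501 serum (final 1:400), then added to cardiolipin-coated, fish-gelatin-blocked plates with β2-GPI for 1 h at RT. Bound IgG was detected with alkaline phosphatase anti-human IgG and phenolphthalein monophosphate, read at 550 nm. IC50 was the peptide amount at half-maximal absorbance.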

[11] = tested on: ACA antibodies; experiment: Competitive binding peptide ACA ELISA, cardiolipin/β2-GPI-coated plates, panel of ACA antibodies (average); set-up: species or system human; conditions: average over nine antibodies
Protocol: as §1, §2
As noted in Section I above, one synthetic peptide, 6641/3G3 was tested against several high titer ACA antisera. This peptide appeared to be crossreactive with the vast majority of ACA antisera tested as illustrated in FIG. 14.
as §3, §4

[12] = tested on: ACA; experiment: Structure Activity Relationship of the Crossreactive ACA Epitope (relative activity); assay type: binding, human; conditions: LJP 688 = 100
Source text: Peptide 6641/3G3 (LJP 688) was subjected to a number of analyses. The analyses included truncation at both the N-terminus and the C-terminus, disulfide substitution, substitution of alanine and glycine for amino acids in positions 2 through 8, substitution of branched aliphatic amino acids in positions 2, 4, 5 and 8, substitution of amino acids affecting conformation of the peptide, including substitution of α-methyl amino acids, substitution of basic amino acids in position 7, substitution of D-amino acids in positions 2 through 9, and the substitution of N-α-methyl amino acids in positions 1 through 9.

Compound: CLVLALDRC [3B6, ACA-6501 phage clone insert]
- signal in the phage-ELISA [1]: significant signals

Compound: AGP LSDPGYVRNIFH PG (LSDPGYVRNIFHPG) [6701/3B1]
- Percent Inhibition of AffACA by Peptide Monomers, 6626 ([2]; peptide 1 mg/mL): 43%
- Percent Inhibition of AffACA by Peptide Monomers, 6641 ([3]; peptide 1 mg/mL): 43%
- Percent Inhibition of AffACA by Peptide Monomers, 6903 ([4]; peptide 1 mg/mL): 51%
- Percent Inhibition of AffACA by Peptide Monomers, 6701 ([5]; peptide 1 mg/mL): 96%
- Percent Inhibition of AffACA by Peptide Monomers, 7004 ([6]; peptide 1 mg/mL): 72%
- Percent Inhibition of AffACA by Peptide Monomers, 6644 ([7]; peptide 1 mg/mL): 37%
- Percent Inhibition of AffACA by Peptide Monomers, 7005 ([8]; peptide 1 mg/mL): 23%
- Percent Inhibition of AffACA by Peptide Monomers, 6638 ([9]; peptide 1 mg/mL): 65%
- Percent Inhibition of AffACA by Peptide Monomers, 6501 ([10]; peptide 1 mg/mL): 41%
- Percent Inhibition of AffACA by Peptide Monomers, Ave. ([11]; peptide 1 mg/mL): 52%

Compound: CC(C)C[C@@H]1NC(=O)[C@H](CCCCN)NC(=O)CNC(=O)[C@@H](CC(C)C)NC(=O)[C@@H](C(C)C)NC(=O)CNC(=O)[C@H](CC(C)C)NC(=O)[C@@H](N)CSSC[C@@H](C(=O)O)NC1=O [C L G dV dL G K L C] (H-CLG[dV][dL]GKLC-OH; disulfide 1-9)
- Relative Activity [12]: 5.9
- with ACA 6501 150 ug/mL [10]: 50 µg/mL

Compound: CC(C)C[C@@H]1NC(=O)[C@H](CCCCN)NC(=O)CNC(=O)[C@H](CC(C)C)NC(=O)[C@H](C(C)C)NC(=O)CNC(=O)[C@H](CC(C)C)NC(=O)[C@@H](N)CCSC[C@@H](C(=O)O)NC1=O [LJP 699] (H-[Abu(4-yl)]LGVLGKLC-OH; thioether 1-9)
- Relative Activity [12]: 1.6
- IC50 Values, ACA-6701 [5]: 3.0 μg/0.1 mL
- with ACA 6501 150 ug/mL [10]: 46 µg/mL
- IC50 Values, ACA-6501 [10]: 4.6 μg/0.1 mL

Compound: CILLAHDRC [3E7, ACA-6501 phage clone insert]
- signal in the phage-ELISA [1]: significant signals

Compound: GILALDYV GG (GILALDYVGG) [6644/CBf]
- Percent Inhibition of AffACA by Peptide Monomers, 6626 ([2]; peptide 200 μg/mL): 37%
- Percent Inhibition of AffACA by Peptide Monomers, 6641 ([3]; peptide 200 μg/mL): 28%
- Percent Inhibition of AffACA by Peptide Monomers, 6903 ([4]; peptide 200 μg/mL): 43%
- Percent Inhibition of AffACA by Peptide Monomers, 6701 ([5]; peptide 200 μg/mL): 22%
- Percent Inhibition of AffACA by Peptide Monomers, 7004 ([6]; peptide 200 μg/mL): 54%
- Percent Inhibition of AffACA by Peptide Monomers, 6644 ([7]; peptide 200 μg/mL): 18%
- Percent Inhibition of AffACA by Peptide Monomers, 7005 ([8]; peptide 200 μg/mL): 57%
- Percent Inhibition of AffACA by Peptide Monomers, 6638 ([9]; peptide 200 μg/mL): 60%
- Percent Inhibition of AffACA by Peptide Monomers, 6501 ([10]; peptide 200 μg/mL): 37%
- Percent Inhibition of AffACA by Peptide Monomers, Ave. ([11]; peptide 200 μg/mL): 39%

Compound: CTILTLDRC [2H2, ACA-6501 phage clone insert]
- signal in the phage-ELISA [1]: significant signals

Compound: CC(C)C[C@@H]1NC(=O)[C@H](CCCCN)NC(=O)CNC(=O)[C@H](CC(C)C)NC(=O)[C@H](C(C)C)NC(=O)CNC(=O)[C@H](CC(C)C)NC(=O)[C@@H](N)CSSC[C@@H](C(=O)O)NC1=O [LJP 690, CLGVLGKLC] (H-CLGVLGKLC-OH; disulfide 1-9)
- Relative Activity [12]: 3.5
- IC50 Values, ACA-6701 [5]: 4.0 μg/0.1 mL
- IC50 Values, ACA-6501 [10]: 10.0 μg/0.1 mL

Compound: CC(C)C[C@@H]1NC(=O)[C@H](CCCCN)NC(=O)[C@H](C)NC(=O)[C@H](CC(C)C)NC(=O)[C@H](C(C)C)NC(=O)CNC(=O)[C@H](CC(C)C)NC(=O)[C@@H](N)CSSC[C@@H](C(=O)O)NC1=O [peptide 925, CLGVLAKLC] (H-CLGVLAKLC-OH; disulfide 1-9)
- Relative Activity [12]: 1.8
- with ACA 6501 150 ug/mL [10]: 40 µg/mL

Compound: AGP DGNIADPRC PG (DGNIADPRCPG) [6626/4C7]
- Percent Inhibition of AffACA by Peptide Monomers, 6626 ([2]; peptide 1 mg/mL): 88%
- Percent Inhibition of AffACA by Peptide Monomers, 6641 ([3]; peptide 1 mg/mL): 45%
- Percent Inhibition of AffACA by Peptide Monomers, 6903 ([4]; peptide 1 mg/mL): 77%
- Percent Inhibition of AffACA by Peptide Monomers, 6701 ([5]; peptide 1 mg/mL): 69%
- Percent Inhibition of AffACA by Peptide Monomers, 7004 ([6]; peptide 1 mg/mL): 99%
- Percent Inhibition of AffACA by Peptide Monomers, 6644 ([7]; peptide 1 mg/mL): 45%
- Percent Inhibition of AffACA by Peptide Monomers, 7005 ([8]; peptide 1 mg/mL): 54%
- Percent Inhibition of AffACA by Peptide Monomers, 6638 ([9]; peptide 1 mg/mL): 96%
- Percent Inhibition of AffACA by Peptide Monomers, 6501 ([10]; peptide 1 mg/mL): 39%
- Percent Inhibition of AffACA by Peptide Monomers, Ave. ([11]; peptide 1 mg/mL): 68%

Compound: CLGVLGALC [C L G V L G A L C]
- Relative Activity [12]: ∞
- with ACA 6501 150 ug/mL [10]: inf
